Structures are written as SMILES.

The target of this test is T1, human RORgT (Homo sapiens, UniProt P51449).
T1 construct: expressed in transfected cells
T1 sequence (P51449 267-516): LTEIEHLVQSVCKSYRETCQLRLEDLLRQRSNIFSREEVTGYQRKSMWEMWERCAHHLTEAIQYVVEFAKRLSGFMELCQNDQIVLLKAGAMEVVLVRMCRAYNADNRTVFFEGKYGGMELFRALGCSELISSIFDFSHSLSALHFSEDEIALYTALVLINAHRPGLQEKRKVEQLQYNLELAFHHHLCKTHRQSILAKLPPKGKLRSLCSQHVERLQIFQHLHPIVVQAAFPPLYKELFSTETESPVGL
The test is described as follows: RORgT Gal4 Luciferase Reporter Gene Assay. Format: cell-based. Conditions: engineered Jurkat cells overexpressing RORgT (LBD or full length) fused with Gal4 Luc reporter; 18 hours at 37° C.; luminescence. The procedure, abridged:
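Jurkat cells expressing Gal4 Luc with either RORgT LBD (aa267-516) or full-length human RORgT, 10,000 cells/well, treated with compound (40 µM to 0.67 nM final, 3-fold dilutions) for 18 h at 37° C. Steady-Glo luminescence read; inhibition of constitutive activity as % signal-window reduction relative to a control compound.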
A word on the EC50: it is the concentration at which the effect is half-maximal. Low values mean a more potent agent, high ones a less potent agent. For the compound `O=C(C1CCS(=O)(=O)CC1)N1CC[C@@]2(S(=O)(=O)c3ccc(F)cc3)c3ccc(Oc4c(F)cccc4C(F)(F)F)cc3CC[C@@H]12` [Example 39, 4-[(3aR,9bR)-7-[2-fluoro-6-(trifluoromethyl)phenoxy]-9b-(4-fluorobenzenesulfonyl)-1H,2H,3H,3aH,4H,5H,9bH-benzo[e]indole-3-carbonyl]-1λ^6-thiane-1,1-dione], a half-maximal response (EC50) required 2.7 nM.
Regarding `O=C(N1CCOCC1)N1CC[C@@]2(S(=O)(=O)c3ccccc3)c3ccc(OCc4c(Cl)cccc4Cl)cc3CC[C@@H]12` [Example 80, 4-[(3aR,9bR)-9b-(benzenesulfonyl)-7-[(2,6-dichlorophenyl)methoxy]-1H,2H,3H,3aH,4H,5H,9bH-benzo[e]indole-3-carbonyl]morpholine], a half-maximal effect (EC50) was put at 102 nM. This EC50 is about 38-fold higher than that of the compound before.
`COC(=O)[C@H]1CC[C@H](C(=O)N2CC[C@@]3(S(=O)(=O)c4ccc(F)cc4)c4ccc(OCc5cc(Cl)ccc5Cl)cc4CC[C@@H]23)CC1` [Example 203, methyl (1r,4r)-4-[(3aR,9bR)-7-[(2,5-dichlorophenyl)methoxy] -9b-(4-fluorobenzenesulfonyl)-1H,2H,3H,3aH,4H,5H,9bH-benzo[e]indole-3-carbonyl] cyclohexane-1-carboxylate]: a half-maximal effect (EC50) was put at 111 nM.
The figure for `O=C(C1CCS(=O)(=O)CC1)N1CC[C@@]2(S(=O)(=O)c3ccccc3)c3ccc(OCc4c(F)cccc4Cl)cc3CC[C@@H]12` [Example 123, 4-[(3aR,9bR)-9b-(benzenesulfonyl)-7-[(2-chloro-6-fluorophenyl)methoxy]-1H,2H,3H,3aH,4H,5H,9bH-benzo[e]indole-3-carbonyl]-1λ^6-thiane-1,1-dione] is 7.1 nM; for `CS(=O)(=O)CC(=O)N1CC[C@@]2(S(=O)(=O)c3ccc(F)cc3)c3ccc(OCc4c(F)cc(F)cc4Cl)cc3CC[C@@H]12` [Example 217, 1-[(3aR,9bR)-7-[(2-chloro-4,6-difluorophenyl)methoxy]-9b-(4-fluorobenzenesulfonyl)-1H,2H,3H,3aH,4H,5H,9bH-benzo[e]indol-3-yl]-2-methanesulfonylethan-1-one] it is 168 nM.
The figure for `NC(=O)N1CCC(C(=O)N2CC[C@@]3(S(=O)(=O)c4ccc(F)cc4)c4ccc(OCc5c(F)cc(F)cc5Cl)cc4CC[C@@H]23)CC1` [Example 220, 4-[(3aR,9bR)-7-[(2-chloro-4,6-difluorophenyl)methoxy]-9b-(4-fluorobenzenesulfonyl)-1H,2H,3H,3aH,4H,5H,9bH-benzo[e]indole-3-carbonyl]piperidine-1-carboxamide] is 13 nM; for `CCOC(=O)CNC(=O)N1CC[C@@]2(S(=O)(=O)c3ccccc3)c3ccc(OCc4c(Cl)cccc4Cl)cc3CC[C@@H]12` [Example 73, ethyl 2-{[(3aR,9bR)-9b-(benzenesulfonyl)-7-[(2,6-dichlorophenyl)methoxy]-1H,2H,3H,3aH,4H,5H,9bH-benzo[e]indole-3-carbonyl]amino}acetate] it is 314 nM.
`O=C(CN1CCS(=O)(=O)CC1)N1CC[C@@]2(S(=O)(=O)c3ccc(F)cc3)c3ccc(OCc4cc(F)c(F)cc4Cl)cc3CC[C@@H]12` [Example 221, 4-{2-[(3aR,9bR)-7-[(2-chloro-4,5-difluorophenyl)methoxy]-9b-(4-fluorobenzenesulfonyl)-1H,2H,3H,3aH,4H,5H,9bH-benzo[e]indol-3-yl]-2-oxoethyl}-1λ^6-thiomorpholine-1,1-dione] came in with an EC50 of 34 nM.
In the case of `COC(=O)[C@H]1CC[C@H](C(=O)N2CC[C@@]3(S(=O)(=O)c4ccc(F)cc4)c4ccc(OCc5c(F)cccc5C(F)(F)F)cc4CC[C@@H]23)CC1` [Example 183, methyl (1r,4r)-4-[(3aR,9bR)-7-{[2-fluoro-6-(trifluoromethyl)phenyl]methoxy}-9b-(4-fluorobenzenesulfonyl)-1H,2H,3H,3aH,4H,5H,9bH-benzo[e]indole-3-carbonyl]cyclohexane-1-carboxylate] it was 48 nM; in that of `N#CCCN1C(=O)CC[C@H]1C(=O)N1CC[C@@]2(S(=O)(=O)c3ccc(F)cc3)c3ccc(OCc4c(F)cccc4Cl)cc3CC[C@@H]12` [Example 160, 3-[(2S)-2-[(3aR,9bR)-7-[(2-chloro-6-fluorophenyl)methoxy]-9b-(4-fluorobenzenesulfonyl)-1H,2H,3H,3aH,4H,5H,9bH-benzo[e]indole-3-carbonyl]-5-oxopyrrolidin-l-yl]propanenitrile], 10 nM.
Consider `Cc1ccccc1Cc1ccc2c(c1)CC[C@H]1N(C(=O)CC3CCS(=O)(=O)C3)CC[C@@]21S(=O)(=O)c1ccc(F)cc1` (stereo partly drawn) [Example 47, 3-{2-[(3aR,9bR)-9b-(4-fluorobenzenesulfonyl)-7-[(2-methylphenyl)methyl]-1H,2H,3H,3aH,4H,5H,9bH-benzo[e]indol-3-yl]-2-oxoethyl}-1λ^6-thiolane-1,1-dione], for which a half-maximal effect (EC50) was put at 4.4 nM. This EC50 is about 2.3-fold lower than that of the compound before.
Turning to `O=C(O)[C@H]1CC[C@H](C(=O)N2CC[C@@]3(S(=O)(=O)c4ccc(F)cc4)c4ccc(Cc5c(F)cccc5Cl)cc4CC[C@@H]23)CC1` [Example 5, (1R,4r)-4-((3aR,9bR)-7-(2-chloro-6-fluorobenzyl)-9b-((4-fluorophenyl)sulfonyl)-2,3,3a,4,5,9b-hexahydro-1H-benzo[e]indole-3-carbonyl)cyclohexanecarboxylic acid], a half-maximal effect (EC50) was put at 7.1 nM.
The figure for `O=C(C1CCS(=O)(=O)CC1)N1CC[C@@]2(S(=O)(=O)c3ccc(F)cc3)c3ccc(Cc4ccccc4)cc3CC[C@@H]12` [Example 31, 4-[(3aR,9bR)-7-benzyl-9b-(4-fluorobenzenesulfonyl)-1H,2H,3H,3aH,4H,5H,9bH-benzo[e]indole-3-carbonyl]-1λ^6-thiane-1,1-dione] is 1.6 nM.
Turning to `CS(=O)(=O)N1CC(NC(=O)N2CC[C@@]3(S(=O)(=O)c4ccccc4)c4ccc(OCc5c(Cl)cccc5Cl)cc4CC[C@@H]23)C1` [Example 85, (3aR,9bR)-9b-(benzenesulfonyl)-7-[(2,6-dichlorophenyl)methoxy]-N-(1-methanesulfonylazetidin-3-yl)-1H,2H,3H,3aH,4H,5H,9bH-benzo[e]indole-3-carboxamide], the EC50 was determined as 18 nM.
Consider `O=C(O)C12CCC(C(=O)N3CC[C@@]4(S(=O)(=O)c5ccccc5)c5ccc(OCc6c(F)cccc6Cl)cc5CC[C@@H]34)(CC1)CC2` [Example 147, 4-[(3aR,9bR)-9b-(benzenesulfonyl)-7-[(2-chloro-6-fluorophenyl)methoxy]-1H,2H,3H,3aH,4H,5H,9bH-benzo[e]indole-3-carbonyl]bicyclo[2.2.2]octane-1-carboxylic acid], for which the response was half-maximal at 104 nM (EC50).
Regarding `O=C(C1CCS(=O)(=O)C1)N1CC[C@@]2(S(=O)(=O)c3ccc(F)cc3)c3ccc(OCc4c(F)cccc4Cl)cc3CC[C@@H]12` (stereo partly drawn) [Example 18, 3-[(3aR,9bR)-7-[(2-chloro-6-fluorophenyl)methoxy]-9b-(4-fluorobenzenesulfonyl)-1H,2H,3H,3aH,4H,5H,9bH-benzo[e]indole-3-carbonyl]-1λ^6-thiolane-1,1-dione], the EC50 came to 6 nM. Against the preceding compound, the EC50 is about 17-fold lower.
In the case of `CC(=O)N1CCC(C)(CN2CC[C@@]3(S(=O)(=O)c4ccc(F)cc4)c4ccc(OCc5c(F)cccc5C(F)(F)F)cc4CC[C@@H]23)CC1` [Example 52, 1-(4-{[(3aR,9bR)-7-{[2-fluoro-6-(trifluoromethyl)phenyl]methoxy} -9b-(4-fluorobenzenesulfonyl)-1H,2H3H,3aH,4H,5H,9bH-benzo[e]indol-3-yl]methyl}-4-methylpiperidin-1-yl)ethan-1-one] it was 24 nM; in that of `O=C(N1CCS(=O)(=O)CC1)N1CC[C@@]2(S(=O)(=O)c3ccccc3)c3ccc(OCc4c(Cl)cccc4Cl)cc3CC[C@@H]12` [Example 84, 4-[(3aR,9bR)-9b-(benzenesulfonyl)-7-[(2,6-dichlorophenyl)methoxy]-1H,2H,3H,3aH,4H,5H,9bH-benzo[e]indole-3-carbonyl]-1λ^6-thiomorpholine-1,1-dione], 15 nM.

(Values after patent US20230295087A1, “AGONISTS OF ROR GAMMAt” (BRISTOL-MYERS SQUIBB COMPANY, priority 2019, published 2023).)
